Like-named read-outs stand apart in the source and are kept apart here.
Columns and labels:
[1] = for average nicotine purity of the aerosol: maximum temperature 300° C., air flow 20 L/min
Experimental: The purity of nicotine in an aerosol produced by vaporizing thin films of (nicotine)2-ZnBr2 was also determined. The percent purity of nicotine in the aerosol was determined by comparing the area under the curve representing nicotine with the area under the curve for all other components separated by HPLC.
The coatings of (nicotine)2-ZnBr2 complex were vaporized by applying a current to the metal foil sufficient to heat the coatings to temperatures of 300° C., 350° C., and 400° C. The aerosol formed by vaporizing the coating in an air flow of 20 L/min was analyzed by collecting the aerosol on oxalic acid coated filters. The collected aerosol was extracted from the filters with 5 mL of an aqueous solution containing 0.1% TFA. A Varian HPLC system having a single XTerra RP18, 4.6×150 mm column, with an eluant solution comprising a 75% aqueous phase of perchloric acid solution with one ampoule of 1-octanesulfonic acid sodium salt concentrate at pH 2, and a 25% organic phase of acetonitrile was used. The HPLC was performed under isocratic run conditions for 20 minutes.

[2] = 350° C., air flow 28.3 L/min
Experimental: To coat metal foils, the (nicotine)2-ZnBr2 complex was dissolved in chloroform. Two separate coating thickness of the (nicotine)2-ZnBr2 complex on stainless steel were prepared. A 169.4 mg/mL solution of (nicotine)2-ZnBr2 complex in chloroform and a 338.8 mg/mL solution of (nicotine)2-ZnBr2 complex in chloroform were made. Exposure to light was minimized at all times during and after formation of these solutions. The (nicotine)2-ZnBr2 complex for each solution was hand coated onto 0.005 inch thick stainless foils using a 10 uL Hamilton syringe. 5.9 uL of the 169.4 mg/mL (nicotine)2-ZnBr2 complex solution was coated onto both sides of an area of 1.27 cm×2.3 cm of stainless steel. This corresponds to a 2 μm film thickness coating which contained about 1 mg of nicotine. Similarly, 8.8 μL of the 338.8 mg/mL (nicotine)2-ZnBr2 complex solution was coated onto both sides of an area of 1.27 cm×2.3 cm of stainless steel. This corresponds to a […] film thickness coating which contained about […] of nicotine The coatings were dried under vacuum for about 1 hour at 25° C. The coatings of (nicotine)2-ZnBr2 complex were stored in a vacuum for at least 30 minutes and protected from light prior to use.
The coatings of (nicotine)2-ZnBr2 complex were vaporized by applying a current of 13.0V to the metal foil sufficient to heat the coatings to temperature of 350° C. The aerosol formed by vaporizing the coating in an air flow of 28.3 L/min was analyzed by collected the aerosol on oxalic acid coated filters using an 8 stage Anderson impactor. […] After vaporization the filters were extracted with 5 mL of 0.1% trifluoroacetic acid/DI H2O and analyzed by HPLC.

[3] = airflow about 20 L/min
[4] = drug aerosol purity and recovered yield after vaporization from a percussively ignited heat package, HPLC; type: physicochemical
[5] = cited from earlier work
[6] = 25° C.; cited from earlier work
[7] = smokeless nicotine products (chewing tobacco, oral snuff, tobacco sachets), buccal absorption

For `CN1CCCC1c1cccnc1.CN1CCCC1c1cccnc1.[Br][Zn][Br]` (stereo not shown) [(nicotine)2-ZnBr2], the “average nicotine purity of the aerosol” value ([1]; 2 μm thick thin film) was “about 99.5%”, the “average nicotine purity of the aerosol” value ([1]; 6 μm thick thin film) was “about 99.99%” and the “purity of nicotine aerosol from 6 μm film compared with 2 μm film” value ([1]; for a given vaporization temperature) was “greater”. For the same molecule, the “change of nicotine purity of the aerosol” value ([1]; thin film heated to a maximum temperature of greater than 300° C.) was “decreased”, the “MMAD of the nicotine aerosol” value ([2]; 2 μm thick film) was 2.00 and the “purity of the nicotine aerosol” value ([2]; 2 μm thick film) was “greater than 97%”. The “MMAD of the nicotine aerosol” value ([2]; 6 μm thick film) was 1.79, the “purity of the nicotine aerosol” value ([2]; 6 μm thick film) was “greater than 97%” and the “average yield of nicotine in the aerosol” value ([3]; 2 μm thick thin film, temperature range 300° C. to 400° C.) was “about 60±7%”. For the same molecule, the “average yield of nicotine in the aerosol” value ([3]; 6 μm thick thin film, maximum temperature 300° C.) was “about 51±2%” and the “average yield of nicotine in the aerosol” value ([3]; 6 μm thick thin film, maximum temperature 400° C.) was “about 73±1%”.

In the case of `Cc1nnc2n1-c1ccc(Cl)cc1C(c1ccccc1)=NC2` [alprazolam], the “purity of the resultant aerosol” value [4] is reported as 96.8% and the “recovered yield of aerosol” value [4] is reported as 100%.

For `CC(C)C(=O)OCC(=O)[C@@]12O[C@H](C3CCCCC3)O[C@@H]1C[C@H]1[C@@H]3CCC4=CC(=O)C=C[C@]4(C)[C@H]3[C@@H](O)C[C@@]12C` [ciclesonide], the “purity of the resultant aerosol” value ([4]; percussively ignited heat package, greater than 800° C., air flow 20 L/min, film 1.58 μm alprazolam, 6.33 μm pramipexole, 2.53 μm ciclesonide) was 85.6%.

For `CN1CCCC1c1cccnc1` (stereo not shown) [nicotine], the “time to attain nicotine blood level peak” value ([5]; cigarette smoking) is given as at most 10 min, the “nicotine blood level peak” value ([5]; produced by cigarettes) is given as 30 to 40 ng/mL and the “maximum nicotine blood concentration” value [5, 7] is given as “approximately 12 ng/mL”. The “time of use to attain maximum nicotine blood concentration” value [5, 7] was “approximately 30 minutes” and the vapor pressure [6] was 0.0425 mmHg.

— patent US7581540B2, “Aerosol drug delivery device incorporating percussively activated heat packages” (Alexza Pharmaceuticals, Inc., priority 2004, dated 2009)
